Results taken from the supplement of paper PMC11061612.

Key:
[1] = tested on: COLO-680N (Esophageal Squamous Cell Carcinoma); assay: Bliss excess, mean over the matrix (fraction); higher = more synergy
In short: (§1)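 Bliss excess equals the observed combination effect minus the expected value EA + EB − EA·EB, where EA and EB are the effects of each agent alone. Combination Emax is the second-highest inhibition within the matrix. Inhibition was scaled from CellTiter-Glo 2.0 luminescence, with 0 set by vehicle wells and 1 by blank wells, after 72 hours of two-drug dosing of cells plated in 1536-well plates.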

[2] = tested on: HEC-1 (Endometrial Carcinoma); assay: as above
In short: as §1

[3] = tested on: NCI-H23 (Lung Adenocarcinoma); assay: as above
In short: as §1

[4] = tested on: 23132-87 (Gastric Carcinoma); assay: combination Emax (second highest fraction inhibited in the dose matrix, 72 h); higher = more inhibition; extreme values may be limits of the assay
In short: as §1

A2058 (Melanoma) = assay: as above
In short: as §1

[5] = tested on: HCT-15 (Colorectal Carcinoma); assay: as above
In short: as §1

[6] = tested on: HSC-39 (Gastric Carcinoma); assay: as above
In short: as §1

[7] = tested on: L-1236 (Hodgkin's Lymphoma); assay: as above
In short: as §1

LN-229 (Glioblastoma) = assay: as above
In short: as §1

[8] = tested on: LXF-289 (Lung Adenocarcinoma); assay: as above
In short: as §1

[9] = tested on: MKN45 (Gastric Carcinoma); assay: as above
In short: as §1

[10] = tested on: NCI-H446 (Small Cell Lung Carcinoma); assay: as above
In short: as §1

[11] = tested on: OVMIU (Ovarian Carcinoma); assay: as above
In short: as §1

[12] = tested on: PANC-03-27 (Pancreatic Carcinoma); assay: as above
In short: as §1

[13] = tested on: REH (B-Lymphoblastic Leukemia); assay: as above
In short: as §1

[14] = tested on: RERF-GC-1B (Gastric Carcinoma); assay: as above
In short: as §1

[15] = tested on: RERF-LC-Sq1 (Squamous Cell Lung Carcinoma); assay: as above
In short: as §1

[16] = tested on: SHP-77 (Small Cell Lung Carcinoma); assay: as above
In short: as §1

[17] = tested on: SK-PN-DW (Other Solid Carcinomas); assay: as above
In short: as §1

[18] = tested on: VAL (B-Cell Non-Hodgkin's Lymphoma); assay: as above
In short: as §1

## CN(CCO)CC[C@H](CSc1ccccc1)Nc1ccc(S(=O)(=O)NC(=O)c2ccc(N3CCC([C@@H](O)c4ccccc4-c4ccc(Cl)cc4)CC3)cc2)cc1S(=O)(=O)C(F)(F)F [AZD4320] + C[C@@H](Nc1cc(F)cc(F)c1)c1cc(C(=O)N(C)C)cc2c(=O)cc(N3CCOCC3)oc12 [AZD8186] (first compound max 1 µM, 7x7, partner max 3 µM)
[1]
  Bliss excess: 0.0088
[2]
  Bliss excess: 0.0133
[3]
  Bliss excess: 0.08
[4]
  combination Emax: 0.74
A2058 (Melanoma)
  combination Emax: 0.765
[5]
  combination Emax: 0.187
[6]
  combination Emax: 0.62
[7]
  combination Emax: 0.981
LN-229 (Glioblastoma)
  combination Emax: 0.389
[8]
  combination Emax: 0.348
[9]
  combination Emax: 0.345
[10]
  combination Emax: 0.811
[11]
  combination Emax: 0.534
[12]
  combination Emax: 0.564
[13]
  combination Emax: 1
[14]
  combination Emax: 0.549
[15]
  combination Emax: 0.274
[16]
  combination Emax: 0.53
[17]
  combination Emax: 0.757
[18]
  combination Emax: 1

## CN(CCO)CC[C@H](CSc1ccccc1)Nc1ccc(S(=O)(=O)NC(=O)c2ccc(N3CCC([C@@H](O)c4ccccc4-c4ccc(Cl)cc4)CC3)cc2)cc1S(=O)(=O)C(F)(F)F [AZD4320] + Cc1cc2ncnn2cc1Nc1ncc2c(n1)n(C1CCOCC1)c(=O)n2C [AZD7648] (first compound max 1 µM, 7x7, partner max 10 µM)
[1]
  Bliss excess: -0.0437
[2]
  Bliss excess: -0.0402
[3]
  Bliss excess: -0.0298
[4]
  combination Emax: 0.2
A2058 (Melanoma)
  combination Emax: 0.0867
[5]
  combination Emax: 0.135
[6]
  combination Emax: 0.367
[7]
  combination Emax: 0.958
LN-229 (Glioblastoma)
  combination Emax: 0.0793
[8]
  combination Emax: 0.216
[9]
  combination Emax: 0.352
[10]
  combination Emax: 0.699
[11]
  combination Emax: 0.847
[12]
  combination Emax: 0.177
[13]
  combination Emax: 1
[14]
  combination Emax: 0.344
[15]
  combination Emax: 0.18
[16]
  combination Emax: 0.491
[17]
  combination Emax: 0.413
[18]
  combination Emax: 1

## CN(CCO)CC[C@H](CSc1ccccc1)Nc1ccc(S(=O)(=O)NC(=O)c2ccc(N3CCC([C@@H](O)c4ccccc4-c4ccc(Cl)cc4)CC3)cc2)cc1S(=O)(=O)C(F)(F)F [AZD4320] + Cn1cnc2c(F)c(Nc3ccc(Br)cc3Cl)c(C(=O)NOCCO)cc21 [Selumetinib] (first compound max 1 µM, 7x7, partner max 3 µM)
[1]
  Bliss excess: 0.0047
[2]
  Bliss excess: -0.018
[3]
  Bliss excess: 0.0703
[4]
  combination Emax: 0.615
A2058 (Melanoma)
  combination Emax: 0.76
[5]
  combination Emax: 0.284
[6]
  combination Emax: 0.57
[7]
  combination Emax: 0.999
LN-229 (Glioblastoma)
  combination Emax: 0.397
[8]
  combination Emax: 0.314
[9]
  combination Emax: 0.511
[10]
  combination Emax: 0.758
[11]
  combination Emax: 0.739
[12]
  combination Emax: 0.793
[13]
  combination Emax: 0.992
[14]
  combination Emax: 0.716
[15]
  combination Emax: 0.49
[16]
  combination Emax: 0.613
[17]
  combination Emax: 0.684
[18]
  combination Emax: 1

## COc1nnc2ccc(N3CCC(c4ccc(OCCN5CCN(C)C(=O)[C@H]5C)cc4)CC3)nn12 [AZD5153] + C=CCn1c(=O)c2cnc(Nc3ccc(N4CCN(C)CC4)cc3)nc2n1-c1cccc(C(C)(C)O)n1 [AZD1775] (first compound max 1 µM, partner max 1 µM)
[1]
  Bliss excess: -0.0746
[2]
  Bliss excess: 0.0363
[3]
  Bliss excess: -0.027
[4]
  combination Emax: 0.636
A2058 (Melanoma)
  combination Emax: 0.8
[5]
  combination Emax: 0.739
[6]
  combination Emax: 0.967
[7]
  combination Emax: 0.999
LN-229 (Glioblastoma)
  combination Emax: 0.431
[8]
  combination Emax: 0.813
[9]
  combination Emax: 0.696
[10]
  combination Emax: 0.962
[11]
  combination Emax: 0.86
[12]
  combination Emax: 0.604
[13]
  combination Emax: 0.926
[14]
  combination Emax: 0.77
[15]
  combination Emax: 0.743
[16]
  combination Emax: 0.66
[17]
  combination Emax: 0.762
[18]
  combination Emax: 0.792

## COc1nnc2ccc(N3CCC(c4ccc(OCCN5CCN(C)C(=O)[C@H]5C)cc4)CC3)nn12 [AZD5153] + CC1(C)CCC(CN2CCN(c3ccc(C(=O)NS(=O)(=O)c4ccc(NCC5CCOCC5)c([N+](=O)[O-])c4)c(Oc4cnc5[nH]ccc5c4)c3)CC2)=C(c2ccc(Cl)cc2)C1 [Venetoclax] (first compound max 1 µM, 7x7, partner max 1 µM)
[1]
  Bliss excess: -0.0372
[2]
  Bliss excess: -0.0443
[3]
  Bliss excess: -0.0473
[4]
  combination Emax: 0.141
A2058 (Melanoma)
  combination Emax: 0.432
[5]
  combination Emax: 0.724
[6]
  combination Emax: 0.676
[7]
  combination Emax: 0.997
LN-229 (Glioblastoma)
  combination Emax: 0.309
[8]
  combination Emax: 0.646
[9]
  combination Emax: 0.566
[10]
  combination Emax: 0.858
[11]
  combination Emax: 0.666
[12]
  combination Emax: 0.255
[13]
  combination Emax: 0.911
[14]
  combination Emax: 0.702
[15]
  combination Emax: 0.52
[16]
  combination Emax: 0.405
[17]
  combination Emax: 0.482
[18]
  combination Emax: 0.996

## COc1nnc2ccc(N3CCC(c4ccc(OCCN5CCN(C)C(=O)[C@H]5C)cc4)CC3)nn12 [AZD5153] + CCN(CCO)CCCOc1ccc2c(Nc3cc(CC(=O)Nc4cccc(F)c4)[nH]n3)ncnc2c1 [AZD2811] (first compound max 1 µM, 7x7, partner max 1 µM)
[1]
  Bliss excess: -0.0833
[2]
  Bliss excess: -0.0176
[3]
  Bliss excess: -0.0412
[4]
  combination Emax: 0.173
A2058 (Melanoma)
  combination Emax: 0.788
[5]
  combination Emax: 0.807
[6]
  combination Emax: 0.952
[7]
  combination Emax: 0.988
LN-229 (Glioblastoma)
  combination Emax: 0.411
[8]
  combination Emax: 0.82
[9]
  combination Emax: 0.556
[10]
  combination Emax: 0.962
[11]
  combination Emax: 0.706
[12]
  combination Emax: 0.179
[13]
  combination Emax: 0.903
[14]
  combination Emax: 0.685
[15]
  combination Emax: 0.555
[16]
  combination Emax: 0.432
[17]
  combination Emax: 0.726
[18]
  combination Emax: 0.727
